How the values were obtained:
Details in all cases: read-out: Km (mM) ^3; 50 mM Britton and Robinson buffer, pH 7.0, 30 °C
T0191 [1] = assay: HPAEC-PAD; format: biochemical, uncultured Marinifilaceae bacterium
T0193 [2] = assay: HPAEC-PAD; format: biochemical, uncultured Flavobacteriaceae bacterium
T0215 [3] = assay: HPAEC-PAD; format: biochemical, uncultured Marinifilaceae bacterium
T0218 = assay: pNP release at […] nm; format: biochemical, metagenome
T0220 = assay: pNP release at […] nm; format: biochemical, metagenome
T0217 = assay: pNP release at […] nm; format: biochemical, metagenome
T0216 = assay: pNP release at […] nm; format: biochemical, uncultured Flavobacteriaceae bacterium
T0193 [4] = assay: pNP release at […] nm; format: biochemical, uncultured Flavobacteriaceae bacterium
T0191 [5] = assay: pNP release at […] nm; format: biochemical, uncultured Marinifilaceae bacterium
T0201 = assay: pNP release at […] nm; format: biochemical, metagenome
T0215 [6] = assay: pNP release at […] nm; format: biochemical, uncultured Marinifilaceae bacterium
T0199 = assay: pNP release at […] nm; format: biochemical, metagenome
T0207 = assay: pNP release at […] nm; format: biochemical, Osedax
T0204 = assay: pNP release at […] nm; format: biochemical, metagenome

CC(=O)N[C@H]1[C@H]([C@H](O)[C@H](O)CO)O[C@@](O[C@H]2[C@@H](O)[C@@H](CO)O[C@@H](O[C@H]3[C@H](O)[C@@H](O)C(O)O[C@@H]3CO)[C@@H]2O)(C(=O)O)C[C@@H]1O (stereo partly drawn) [3-Sialyllactose]
Km (T0191 [1]): 0.031 ± 0.001 mM
Km (T0193 [2]): 0.082 ± 0.06 mM

CC(=O)N[C@H]1[C@H]([C@H](O)[C@H](O)CO)O[C@@](OC[C@H]2O[C@@H](O[C@H]3[C@H](O)[C@@H](O)C(O)O[C@@H]3CO)[C@H](O)[C@@H](O)[C@H]2O)(C(=O)O)C[C@@H]1O (stereo partly drawn) [6-Sialyllactose]
Km (T0191 [1]): 0.053 ± 0.001 mM

OC[C@H]1O[C@H](O[C@H]2[C@@H](O)[C@@H](CO)OC(O)[C@@H]2O)[C@H](O)[C@@H](O)[C@H]1O (stereo partly drawn) [Galactose-α-1,3-galactose]
Km (T0215 [3]): 0.048 ± 0.009 mM

CCCCCCCCCCCCC/C=C/[C@@H](O)[C@@H](N)CO[C@@H]1O[C@H](CO)[C@@H](O[C@@H]2O[C@H](CO)[C@H](O[C@H]3O[C@H](CO)[C@H](O)[C@H](O)[C@H]3O)[C@H](O)[C@H]2O)[C@H](O)[C@H]1O [Globotriaosylsphingosine]
Km (T0215 [3]): 0.058 ± 0.007 mM

CC(=O)N[C@H]1[C@H](Oc2ccc([N+](=O)[O-])cc2)O[C@H](CO)[C@H](O)[C@@H]1O [pNP-NAβGal]
Km (T0218): 0.326 ± 0.037 mM

CC(=O)N[C@H]1[C@H](Oc2ccc([N+](=O)[O-])cc2)O[C@H](CO)[C@@H](O)[C@@H]1O [pNP-NAβGlu]
Km (T0220): 0.042 ± 0.004 mM
Km (T0218): 0.134 ± 0.015 mM
Km (T0217): 0.028 ± 0.012 mM
Km (T0216): 0.025 ± 0.006 mM

CC(=O)N[C@H]1[C@H]([C@H](O)[C@H](O)CO)O[C@@](Oc2ccc([N+](=O)[O-])cc2)(C(=O)O)C[C@@H]1O [pNP-Neu5Ac]
Km (T0193 [4]): 0.55 ± 0.17 mM
Km (T0191 [5]): 0.18 ± 0.03 mM

O=[N+]([O-])c1ccc(O[C@H]2O[C@H](CO)[C@H](O)[C@H](O)[C@H]2O)cc1 [pNP-αGal]
Km (T0201): 6.22 ± 0.93 mM
Km (T0215 [6]): 0.062 ± 0.008 mM

C[C@@H]1O[C@@H](Oc2ccc([N+](=O)[O-])cc2)[C@H](O)[C@H](O)[C@H]1O [pNP-αRham]
Km (T0199): 1.08 ± 0.15 mM

C[C@H]1O[C@@H](Oc2ccc([N+](=O)[O-])cc2)[C@H](O)[C@@H](O)[C@H]1O [pNP-β-Fuc]
Km (T0207): 0.0118 ± 0.003 mM

O=[N+]([O-])c1ccc(O[C@@H]2O[C@H](CO)[C@H](O)[C@H](O)[C@H]2O)cc1 [pNP-βGal]
Km (T0207): 0.199 ± 0.032 mM

O=[N+]([O-])c1ccc(O[C@@H]2O[C@H](CO)[C@@H](O)[C@H](O)[C@@H]2O)cc1 [pNP-βMan]
Km (T0204): 0.127 ± 0.036 mM

Source: PMC8645421 (Computational and Structural Biotechnology Journal, 2021)
